According to patent US20230090391A1, “OMECAMTIV MECARBIL TABLET” (Amgen Inc., priority 2020, published 2023):
Structures can show the parent of a compound that is named as a salt.

How the values were obtained:
[1] = Phase 1 crossover study: safety and tolerability of single oral doses of OM; format: in vivo, healthy adult subjects; conditions: all 5 treatments
Method: The secondary objective of the study was to evaluate the safety and tolerability of a single 6 mg dose (administered as mini-tablets) or 25 mg dose (administered as a MR tablet or mini-tablets) of OM administered to healthy adult subjects.
The study was a Phase 1, single-center, open-label, randomized, 5-period, 4-sequence crossover study to investigate the pharmacokinetics, safety, and tolerability of the disclosed tablet formulations and a conventional MR tablet formulation of OM in healthy male and healthy female adult subjects. Subjects were screened to assess eligibility to enter the study within 21 days prior to the first dose administration. Subjects were admitted into the clinical research unit on Day 1 and confined to the clinical research unit for Periods 1 through 5 until discharged at end of study. Following randomization into 1 of 4 treatment sequences, subjects received 1 of the 5 treatments on Day 1 of each treatment period with all subjects receiving all 5 treatments. Blood was collected at predetermined timepoints to characterize plasma concentrations of OM. Safety and tolerability monitoring was performed throughout the study.
Up to twenty subjects (5 per sequence) were enrolled in the study. Data for all 20 subjects entered into the study were included in the PK and safety analyses. Healthy male or female subjects were selected according to inclusion and exclusion criteria. The subjects were assigned to one of the five following Treatment Groups (A-E): • Treatment Group A: 25 mg (1×25 mg) OM MR tablet; • Treatment Group B: 25 mg (25×1 mg) OM slow-release mini-tablets; • Treatment Group C: 25 mg (25×1 mg) OM fast-release mini-tablets; • Treatment Group D: 6 mg (6×1 mg) OM slow-release mini-tablets; and • Treatment Group E: 6 mg (6×1 mg) OM fast-release mini-tablets.
The safety analysis included monitoring adverse events, clinical laboratory evaluations, 12 lead electrocardiograms (ECGs), and vital signs during the study.
All safety data were listed. The treatment-emergent adverse events were summarized by treatment, severity, and relationship to the study drug. The frequency of treatment emergent adverse events was summarized by treatment, system organ class and preferred term of the Medical Dictionary for Regulatory Activities. No inferential statistical analyses were planned.

[2] = 19F solid state NMR of granulation and IR mini-tablet cores (physical form); format: physicochemical; conditions: 19F SSNMR of IR granulation and IR mini-tablet cores
From the text: Cores 1A-1C, as well as the corresponding granulates, were subjected to analytical characterizations. The results are depicted in FIGS. 3 and 4.
FIGS. 3 and 4 depict the ^19F solid state NMR (SSNMR) spectra of the immediate-release granulation and immediate-release mini-tablet cores.

Structure (SMILES) | Clinical laboratory evaluations, vital signs, 12-lead ECGs ([1]; 20 subjects) | Number of subjects reporting treatment-emergent adverse events considered related to OM ([1]; 20 subjects) [subjects] | Serious adverse events ([1]; 20 subjects) | Treatment-emergent adverse events leading to discontinuation ([1]; 20 subjects) | Severity of adverse events ([1]; 20 subjects, resolved by the end of the study) | Number of treatment-emergent adverse events considered related to OM ([1]; myalgia, dizziness, costochondritis, muscle twitching, non-cardiac chest pain) | Stability and physical form during manufacturing [2]
COC(=O)N1CCN(Cc2cccc(NC(=O)Nc3ccc(C)nc3)c2F)CC1 [OM, Omecamtiv mecarbil] | no clinically significant findings | 7 | no serious adverse events | no treatment-emergent adverse events led to premature discontinuation | mild | Eight | 
COC(=O)N1CCN(Cc2cccc(NC(=O)Nc3ccc(C)nc3)c2F)CC1 [omecamtiv mecarbil dihydrochloride monohydrate] |  |  |  |  |  |  | stable during manufacturing and exhibits no change in physical form
